Columns and labels:
tobacco PBD6 plants = assay: Measurement of the glyphosate tolerance of transformed tobacco plants sown in the open; format: in vivo; settings: untransformed tobacco PBD 6 controls, 0.8 kg/ha, 5-leaf stage, 30 days after the treatment
Procedure: The vector is introduced into the nononcogenic agrobacterium strain EHA 101 (Hood et al., 1987) carrying the cosmid pTVK 291 (Komari et al., 1986). The transformation method is based on the procedure of Horsh et al. (1985).
The regeneration of the tobacco PBD6 (source SEITA France) using foliar explants is carried out on a Murashige and Skoog (MS) basic medium containing 30 g/l of sucrose and […] of kanamycin. The foliar explants are removed from greenhouse- or in vitro-grown plants and transformed according to the foliar disc method (Science 1985, Vol. 227, p. 1229-1231) in three successive stages: the first comprises the induction of shoots on an MS medium supplemented with 30 g of sucrose containing 0.05 mg of naphthylacetic acid (ANA) and 2 mg/l of benzylaminopurine (BAP), for 15 days. The shoots formed during this stage are then developed by culturing on an MS medium supplemented with 30 g/l of sucrose, but not containing hormone, for 10 days. […]
The best plants obtained from the regeneration of transformed tobaccos are selected under a greenhouse after treating the plants, at the 5-leaf stage, […] […] Molecular hybridization analysis enabled the plants having integrated only one copy of the T-DNA to be determined. […]

[1] = tested on: Spring colzas, Westar cultivar; assay: Greenhouse glyphosate treatment of transformed spring colza; format: in vivo; settings: 400 g a.s/ha
Description: Spring colzas, Westar cultivar, resistant to glyphosate, were obtained using the method of BOULTER et al., 1990 (Plant Science, 70: 91-99), with the constructs pRPA-BL 488 (dH-At-PTO-aroA-nos), pRPA-BL 502 (CaMV/H-At-PTO- aroA-nos).

O=C(O)CNCP(=O)(O)O [glyphosate, N-(phosphonomethyl)glycine]
effect of glyphosate on control (untransformed) plants (phytotoxicity) (tobacco PBD6 plants): completely destroyed
effect of glyphosate treatment on nontransgenic plants [1]: destroys nontransgenic plants
